Key:
Format in all cases: in vivo, human
hemodialysis patients [1] = assay: Cardiovascular calcification by Electron Beam Tomography (Agatston score), 52 week study; conditions: Week 0 to 52
Method: (§1) The study was a 52 week, randomized, open label, multi-center, parallel study designed to assess the effects of sevelamer compared to calcium acetate/carbonate in enabling hemodialysis patients to reach therapeutic goals of phosphorus <5 mg/dL, calcium <10.5 mg/dL and iPTH in the range of 150-300 pg/mL. Patients also underwent Electron Beam Tomography (EBT) scans at Day 0 and Weeks 26 and 52. These scans were used to assess changes in cardiovascular calcification over time. A total of 202 patients who were on hemodialysis and taking one or more phosphate binders were randomized in a 1:1 design to receive either Renagel® or calcium acetate (United States)/carbonate (Europe), stratified by the presence or absence of diabetes.
Approximately 12 months into the Extension study, the analysis of the initial study was completed. […] This difference was statistically significant (p=0.0398). […] This difference was statistically significant (p=0.0104). When analyzed by percent change and weekly change, the results were consistently in favor of the sevelamer group. Complete results are described in the article referenced as Protocol 7 (Chertow, 2002).

hemodialysis patients [2] = assay: Bone density, baseline vs 12 month scan (Example 2)
Method: […] Specifically, thoracic spine bone density was assessed by computerized tomography densitometry (density expressed as Hounsfield units). Trabecular bone density was measured in the core of the lowest vertebral body completely captured by the scanning procedure, while cortical bone density was measured in the axial plate of the same vertebral body. Care was taken to evaluate exactly the same vertebral level in consecutive scans in the same patient. No significant differences in demographics, baseline bone density or vascular calcification scores were observed between the sevelamer and calcium groups, with the exception of age, (sevelamer/Renagel group 53±12 yrs, calcium group 59±13 yrs, p=0.02).

hemodialysis patients [3] = assay: Biochemical markers after 12 months of treatment (Example 2); conditions: on average, one treatment group relative to the other
Method: Following the 12 months of treatment, the levels a number of biochemical markers were assayed in the patient groups. […] The group treated with sevelamer had on average higher iPTH, 1-84 PTH, alkaline phosphatase, bone specific alkaline phosphatase, osteocalcin, and HDL cholesterol. The sevelamer group had lower calcium, 25-hydroxyvitamin D, total cholesterol, LDL cholesterol, apolipoprotein B, […] and total CO2.

hemodialysis patients [4] = assay: Thoracic spine bone density by computerized tomography densitometry, baseline vs 24 month EBT scan (Extension study); conditions: two years, FIG. 1
Description: Prior to the completion and analysis of this protocol, the study was extended for an additional two years. During this extension study, patients would remain on the phosphate binder to which they were originally randomized, sevelamer or calcium acetate/carbonate, and EBT scans would be performed at Month 24 and Month 36, to assess long-term changes in cardiovascular calcification. Forty-five patients in the US and 72 patients in the EU were eligible and consented to participate in the Extension study.
Having met the endpoints of the original study, the Extension study was prematurely discontinued. Only 77 Extension study patients opted to have a final EBT scan performed.
The study's EBT Core Lab evaluated the EBT images of patients who had both a baseline and 24 month scan to assess changes over time in trabecular and cortical bone density. Specifically, thoracic spine bone density was assessed by computerized tomography densitometry (density expressed as Hounsfield units). Trabecular bone density was measured in the core of the lowest vertebral body completely captured by the scanning procedure, while cortical bone density was measured in the axial plate of the same vertebral body. Care was taken to evaluate exactly the same vertebral level in consecutive scans in the same patient. […]

hemodialysis patients [5] = assay: Biochemical marker studies, 52 week randomized study in hemodialysis patients; conditions: end of the chronic phase of the study
Description: Protocols 1-7 for use of RenaGel® (Geltex Pharmaceuticals, Inc., Waltham, Mass.) in each of the haemodialysis patient studies are provided in the following references, respectively, the teachings of which are incorporated herein by reference in their entireties.
Chertow, G. M., Burke, S. K., Raggi, P., for the Treat to Goal Working Group, “Sevelamer attenuates the progression of coronary and aortic calcification in hemodialysis patients,” Kidney Int. 62: 245-252 (2002).
Osteocalcin and BSAP are measures of osteoblast function and are indicative of bone formation. […] There were no statistically significant differences between treatment groups in the mean change from Day 0 to Week 52 in c-telopeptides, a collagen fragment which indicates osteoclast function and bone resorption.
as §1, with “A total of 202 patients who were on hemodialysis and taking one or more phosphate binders were randomized in a 1:1 design to receive either Renagel® or calcium acetate (United States)/carbonate (Europe), stratified by the presence or absence of diabetes.” left out

[6] = 12 month treatment period, absolute and percentage change

calcium acetate/carbonate
median change in aortic calcification by Agatston score (hemodialysis patients [1]; p=0.0104 between groups): 75.05
median change in coronary artery calcification by Agatston score (hemodialysis patients [1]; p=0.0398 between groups): 36.55
change in cortical bone density (hemodialysis patients [2]; [6]): trend to reduced
change in trabecular bone density (hemodialysis patients [2]; [6]): significant reduction
magnitude of trabecular bone density loss, mean (hemodialysis patients [2]; 52 weeks): −5%
iPTH (hemodialysis patients [3]): significantly lower
change in cortical bone density from baseline (hemodialysis patients [4]): non-significant decrease
change in trabecular bone density from baseline (hemodialysis patients [4]): significant reduction
mean increase in BSAP (bone-specific alkaline phosphatase) (hemodialysis patients [5]; p<0.0001 between groups): 6.81 U/L
mean increase in osteocalcin (hemodialysis patients [5]; p=0.0003 between groups): 15.80 ng/mL
